Laboratory results as given in patent US20260345729A1, “TISSUE DIFFERENTIATION FACTOR RELATED POLYPEPTIDES (TDFRPS) FOR THE TREATMENT OF MYOCARDIAL INJURY” (Therapeutics By Design, LLC, priority 2022, published 2026).
Several values for one entry are separate records, joined by “and”; a condition that tells them apart may be missing. Equal entries are not always repeated. Entries after “also recorded” stand apart in the source; their conditions may differ.

Tests used:
[1] = tested on: Caspase-3, cardiomyocytes; assay: Doxorubicin-induced Caspase-3 activity in cardiomyocytes; assay type: cell-based, rat; settings: for caspase-3 activity (effect of doxorubicin itself): 333 μM (legend) / 0.33 μM (example) doxorubicin, cardiomyocytes, FIG. 3; for doxorubicin induced Caspase-3 activity: doxorubicin 0.33 μM 24 h (FIG. 3 legend: 333 μM), then BMP-7 143 nM or THR-123 100 and 500 μM for 60 h, p<0.05
Protocol: (§1) Neonatal rat cardiomyocytes (CM) were pre-treated with 0.33 μM doxorubicin for 24 h, followed by treatment with BMP-7 (143 nM) or THR-123 (SEQ ID NO: 1) at 100 and 500 μM for 60 h.
Neonatal rat cardiomyocytes (CM) were pre-treated with 0.33 μM doxorubicin for 24 h, followed by treatment with BMP-7 (143 nM) or SEQ ID No. 1 at 100 and 500 μM for 60 h. […] Caspase-3 activation is a step common to both apoptotic pathways and leads to apoptosis.

[2] = tested on: phosphorylation of AKT, cardiomyocytes; assay: Phosphorylated AKT in doxorubicin-treated cardiomyocytes; assay type: cell-based, rat; settings: FIG. 2
Source text: (§2) The examples described herein valuated the effect of TDFRP's on the physiology of cardiomyocytes in vitro. Phosphorylation of cellular AKT at Ser473 is known to promote cardiomyocyte survival, function, and contractility. Cellular enzyme Caspase-3 is responsible for apoptosis via both apoptosis pathways. Chemotherapeutic agent doxorubicin […] used to treat a diverse number of cancers, but one significant side effect is decreased heart function. In cardiomyocytes, doxorubicin hinders the phosphorylation of AKT and stimulates Caspase-3. Lipopolysaccharides (LPS) are endotoxins that promote inflammation and apoptosis in cardiomyocytes.
as §1

[3] = tested on: paracardial inflammation in rat hearts after LAD ligation; assay: Paracardial inflammation / pericarditis inflammation level in rat LAD ligation model; assay type: in vivo; settings: i.v.; BMP-7 160 μg/kg; THR-123 10 mg/kg; day 7 post ligation; FIG. 9
Protocol: Myocardial ischemia was created by ligating the left anterior descending artery (LAD), which supplies blood to the left ventricle of the heart. In the LAD infarct model the chest and the pericardium are opened to expose the LAD. A suture is placed around the LAD and loops are added to the two ends, then the suture is tightened with an over hand knot (ligation). The ligation blockage to the LAD was maintained for 20 min to simulate a coronary infarct, then released using the two loops.
The animals were divided into three groups that were dosed with PBS, BMP-7, or THR-123 (SEQ ID NO: 1). Administrations were at 2 hr prior to ligation and at 24, 72 and 120 hr post ligation.
Twenty-four unmanipulated rats, sorted into three large groups by initial body weight (>300 g pre-surgery) were evaluated. Animals underwent surgery and were sorted into 3 treatment groups: Group 1: Vehicle (neg. control), PBS, equal volume i.v; Group 2: BMP-7, 160 μg/kg i.v.<5 ml/kg; Group 3: THR-123 (SEQ ID NO: 1), 10 mg/kg i.v.<5 ml/kg. The LAD was ligated to create a 20 min period of ischemia, then released for seven days during which reperfusion injury occurs (IR injury).
The predominance of the hearts from the PBS treated group had more severe inflammation than hearts from the BMP-7 treated and the THR-123 (SEQ ID NO: 1) treated groups (FIG. 9).

[4] = tested on: IL-6, cardiomyocytes; assay: LPS-induced IL-6 release in cardiomyocytes; assay type: cell-based, human; settings: 100 ng/ml LPS; BMP-7 143 nM; THR-123 4, 20, 100, 500 μM; FIG. 5
[5] = tested on: Akt phosphorylation at Serine 473, neonatal rat cardiomyocytes; assay: Akt phosphorylation (Ser473) in cardiomyocytes starved by serum withdrawal (ischemic injury); assay type: cell-based; settings: serum/growth supplement withdrawal; THR-123 100 μM, 60 h; p<0.01; FIG. 1
Source text: Phosphorylated Akt is a marker of apoptosis. Ischemic injury leads to apoptosis.
as §2
Primary neonatal rat cardiomyocytes (Cell Applications) were cultured in medium with 10% growth supplement (Cell Applications) for 24 hours at 37 °C, 5% CO2. Cells were then starved of growth supplement for 12 hours to create ischemic injury. Controls received medium alone. Cells were incubated with culture medium alone, BMP-7 (143 nM) or SEQ ID No. 1 (100 μM) for 60 h. In FIG. 1, Akt phosphorylation at Serine 473 (Cell Signaling Technology) is depressed due to media starvation and was not affected by the addition of PBS.

[6] = tested on: myocardial ischemia in the rat after ligation of the left anterior descending artery; assay: Rat LAD ligation model: histomorphometric necrotic volume / volume at risk (ischemia/reperfusion injury); assay type: in vivo; settings: i.v. 2 hr prior and 24, 72, 120 hr post ligation, 20 min ischemia, 7 days reperfusion, BMP-7 160 μg/kg (p=0.08), THR-123 10 mg/kg (p=0.007), FIG. 8
Protocol: For each slice of a heart, the area of the necrotic area and the area of the whole area at risk (not stained blue) are measured. The areas are summed over all slices to obtain an estimate of the necrotic volume (NV) and the volume at risk (VR). The ratio of NV/VR is a measure of the myocardial injury resulting from the period of ischemia and subsequent reperfusion injury.
The efficacy of BMP mimetic THR-123 in ameliorating the effects of myocardial ischemia was investigated in the rat after ligation of the coronary artery. The rat LAD model is used for studying the effect of treatments for ameliorating the effect of a heart attack (coronary infarct). The Left Anterior Descending artery (LAD) supplies blood to the left ventricle. Blocking blood flow through the LAD creates ischemia in a region of the left ventricle muscle (region at risk). […]
Twenty-four unmanipulated rats, sorted into three large groups by initial body weight (>300 g pre-surgery) were evaluated. […]
The effect of the LAD ligation was measured via histomorphometric analysis of heart slices where the necrotic areas (yellow) and the areas impacted by the LAD ligation (area at risk, i.e., not stained blue) were measured for each slice and summed over all slices to obtain a measure of the infarct volume and the volume at risk (FIG. 7). […]

[7] = tested on: Caspase-3, cardiomyocytes; assay: LPS-induced Caspase-3 in cardiomyocytes; assay type: cell-based, human; settings: 100 ng/ml LPS; BMP-7 143 nM; THR-123 4, 20, 100, 500 μM (legend: 20 μM or higher); FIG. 4

Row | caspase-3 activity (effect of doxorubicin itself) [1] | caspase-3 activity (effect of doxorubicin itself) ([1]; listed as Doxorubicin) | Molecule | phosphorylation of AKT (effect of doxorubicin itself) ([2]; 333 nM doxorubicin, serum starved cardiomyocytes) | paracardial inflammation relative to PBS [3] | doxorubicin induced Caspase-3 activity [1] | LPS induced IL-6 [4] | Akt Ser473 phosphorylation [5] | reduction in myocardial injury / IR damage relative to PBS (necrotic volume / volume at risk) ([6]; 10 mg/kg) | LPS induced Caspase-3 [7] | Akt phosphorylation compared to doxorubicin alone ([2]; 0.33 μM (333 nM) doxorubicin 24 h, then THR-123 at 100 and 500 μM for 60 h, p<0.01) | reduction in myocardial injury / IR damage relative to PBS (necrotic volume / volume at risk) [6] [%]
1 | stimulated caspase-3 activity | Stimulated Caspase-3 | COc1cccc2c1C(=O)c1c(O)c3c(c(O)c1C2=O)C[C@@](O)(C(=O)CO)C[C@@H]3O[C@H]1C[C@H](N)[C@H](O)[C@H](C)O1 [doxorubicin, reference compound] | further reduces phosphorylation of AKT |  |  |  |  |  |  |  | 
2 |  |  | THR-123: TDFRP peptide, BMP mimetic: (H) CYFDDSSNVLCKKYRS (OH) |  | reduced paracardial inflammation relative to PBS | inhibited doxorubicin induced Caspase-3 activity in a dose dependent manner; also recorded: significantly inhibited doxorubicin induced Caspase-3 activity; also recorded: completely reversed the apoptotic effects of doxorubicin | reduces the level of LPS induced IL-6 in a concentration dependent manner; also recorded: reduced the level of IL-6 release as did THR-123 in a dose dependent manner | significantly increased Akt Ser473 phosphorylation; also recorded: reversed the effects of ischemia on AKT phosphorylation | 85% and 84% | reduced the level of LPS induced Caspase-3 in a concentration dependent manner; also recorded: reversed caspase-3 activity to an even greater extent | significantly increased cellular Akt phosphorylation; also recorded: reversed the inhibition of AKT phosphorylation in a dose dependent manner | 
3 |  |  | BMP-7: bone morphogenetic proteins (BMPs) (protein, UniProt P18075 293-431, looked up) Bone morphogenetic protein 7: STGSKQRSQNRSKTPKNQEALRMANVAENSSSDQRQACKKHELYVSFRDLGWQDWIIAPEGYAAYYCEGECAFPLNSYMNATNHAIVQTLVHFINPETVPKPCCAPTQLNAISVLYFDDSSNVILKKYRNMVVRACGCH |  | reduced paracardial inflammation relative to PBS | significantly inhibited doxorubicin induced Caspase-3 activity; also recorded: completely reversed the apoptotic effects of doxorubicin | reduces the level of LPS induced IL-6 in a concentration dependent manner; also recorded: reduced the level of IL-6 release |  |  | reduced the level of LPS induced Caspase-3 in a concentration dependent manner; also recorded: somewhat reversed the effect of LPS |  | 51
